Patent EP4722207A1, “OXOISOINDOLINYL-SUBSTITUTED TETRAHYDROPYRIMIDINEDIONE DERIVATIVE AND USE THEREOF” (Gluetacs Therapeutics (Shanghai) Co., Ltd., priority 2023, dated 2024)

What was measured:
WEE1 = biological target: T1, WEE1 (Homo sapiens, UniProt P30291+Q96SW2); assay: Western-blot assay, substrate protein degradation in hPBMCs: WEE1; type: cell-based; conditions: 24 hours of compound treatment, 50 nM and 500 nM
T1 construct: effects of the compounds of the present disclosure on the expression of target proteins in cells; endogenous in cells; host or cells: human PBMCs (hPBMCs)

IKZF1 = biological target: T2, IKZF1 (Homo sapiens, UniProt Q13422+Q96SW2); assay: Western-blot assay, substrate protein degradation in hPBMCs: IKZF1; type: cell-based; conditions: 24 hours of compound treatment, 50 nM and 500 nM
T2 construct: effects of the compounds of the present disclosure on the expression of target proteins in cells; endogenous in cells; host or cells: human PBMCs (hPBMCs)

IKZF2 = biological target: T3, IKZF2 (Homo sapiens, UniProt Q96SW2+Q9UKS7); assay: Western-blot assay, substrate protein degradation in hPBMCs: IKZF2; type: cell-based; conditions: 24 hours of compound treatment, 50 nM and 500 nM
T3 construct: effects of the compounds of the present disclosure on the expression of target proteins in cells; endogenous in cells; host or cells: human PBMCs (hPBMCs)

IKZF3 = biological target: T4, IKZF3 (Homo sapiens, UniProt Q96SW2+Q9UKT9); assay: Western-blot assay, substrate protein degradation in hPBMCs: IKZF3; type: cell-based; conditions: 24 hours of compound treatment, 50 nM and 500 nM
T4 construct: effects of the compounds of the present disclosure on the expression of target proteins in cells; endogenous in cells; host or cells: human PBMCs (hPBMCs)

CK1α = biological target: T5, CK1α (Homo sapiens, UniProt P48729+Q96SW2); assay: Western-blot assay, substrate protein degradation in hPBMCs: CK1α; type: cell-based; conditions: 24 hours of compound treatment, 50 nM and 500 nM
T5 construct: effects of the compounds of the present disclosure on the expression of target proteins in cells; endogenous in cells; host or cells: human PBMCs (hPBMCs)

GSPT1 = biological target: T6, GSPT1 (Homo sapiens, UniProt P15170+Q96SW2); assay: Western-blot assay, substrate protein degradation in hPBMCs: GSPT1; type: cell-based; conditions: 24 hours of compound treatment, 50 nM and 500 nM
T6 construct: effects of the compounds of the present disclosure on the expression of target proteins in cells; endogenous in cells; host or cells: human PBMCs (hPBMCs)

H292 = assay: Cell viability assay (CellTiter-Meiluncell Luminescent), tumor cell proliferation, H292; conditions: Homo sapiens, NCI-H292, 96 h; for inhibition at 0.01 µM: read-out: Inhibition Rate at 10 nM (%); for inhibition at 0.5 µM: read-out: Inhibition Rate at 500 nM (%)
Method: The tumor cells used herein were cultured in a cell culture medium listed in table 2 at 37°C in an incubator with 5% CO2. Prior to experimentation, all cell lines used were correctly identified by STR profiling, and tested negative for mycoplasma contamination using a mycoplasma detection kit through routine screenings.
On the following day, the test compounds of the present disclosure were subjected to serial dilution. […] Subsequently, 0.5 µL of the test compound dilution was transferred into the 96-well plate containing the cells, with each well containing 100 µL of cell culture medium. […] Into the 96-well plate, the diluted test compounds and corresponding detection reagents were added, resulting in final test compound concentrations of 500 nM and 10 nM, respectively. The experimental procedure is described below using the diluted 2 µM test compound as an example.
After the cells were treated with the compounds of the present disclosure for a specified period, the cell viability assay reagent was added to the culture medium according to the kit's instructions to determine cell viability. […] All controls were treated using the same procedure as the compounds of the present disclosure. The growth inhibition curves for the compounds of the present disclosure were plotted using Prism GraphPad software, and the IC50 values were calculated therefrom.

T4 sequence (Q9UKT9 whole entry): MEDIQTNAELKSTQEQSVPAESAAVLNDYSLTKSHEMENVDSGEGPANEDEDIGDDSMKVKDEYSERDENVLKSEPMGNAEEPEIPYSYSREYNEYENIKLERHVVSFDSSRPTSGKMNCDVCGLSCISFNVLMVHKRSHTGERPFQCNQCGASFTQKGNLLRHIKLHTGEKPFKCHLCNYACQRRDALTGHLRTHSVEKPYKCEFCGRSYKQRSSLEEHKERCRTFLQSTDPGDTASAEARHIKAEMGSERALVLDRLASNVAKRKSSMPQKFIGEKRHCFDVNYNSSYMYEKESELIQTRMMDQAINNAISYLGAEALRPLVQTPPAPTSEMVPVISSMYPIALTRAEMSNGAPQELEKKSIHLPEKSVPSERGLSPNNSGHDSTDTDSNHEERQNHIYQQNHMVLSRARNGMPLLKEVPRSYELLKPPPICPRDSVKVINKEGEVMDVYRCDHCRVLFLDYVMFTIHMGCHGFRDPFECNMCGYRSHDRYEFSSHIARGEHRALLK
T4 sequence (Q96SW2 whole entry): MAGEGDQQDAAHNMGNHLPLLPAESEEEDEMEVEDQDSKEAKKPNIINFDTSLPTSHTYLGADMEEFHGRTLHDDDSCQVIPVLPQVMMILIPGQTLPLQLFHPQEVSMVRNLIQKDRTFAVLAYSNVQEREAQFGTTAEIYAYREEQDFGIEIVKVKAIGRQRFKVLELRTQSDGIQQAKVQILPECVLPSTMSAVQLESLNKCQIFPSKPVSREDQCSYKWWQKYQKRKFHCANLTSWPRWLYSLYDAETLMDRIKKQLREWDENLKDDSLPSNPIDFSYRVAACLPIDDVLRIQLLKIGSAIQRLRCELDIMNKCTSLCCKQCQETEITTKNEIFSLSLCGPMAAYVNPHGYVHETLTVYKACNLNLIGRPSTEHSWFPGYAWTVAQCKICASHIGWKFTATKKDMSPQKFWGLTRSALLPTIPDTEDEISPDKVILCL
T4 sequence (Q16531 whole entry partner): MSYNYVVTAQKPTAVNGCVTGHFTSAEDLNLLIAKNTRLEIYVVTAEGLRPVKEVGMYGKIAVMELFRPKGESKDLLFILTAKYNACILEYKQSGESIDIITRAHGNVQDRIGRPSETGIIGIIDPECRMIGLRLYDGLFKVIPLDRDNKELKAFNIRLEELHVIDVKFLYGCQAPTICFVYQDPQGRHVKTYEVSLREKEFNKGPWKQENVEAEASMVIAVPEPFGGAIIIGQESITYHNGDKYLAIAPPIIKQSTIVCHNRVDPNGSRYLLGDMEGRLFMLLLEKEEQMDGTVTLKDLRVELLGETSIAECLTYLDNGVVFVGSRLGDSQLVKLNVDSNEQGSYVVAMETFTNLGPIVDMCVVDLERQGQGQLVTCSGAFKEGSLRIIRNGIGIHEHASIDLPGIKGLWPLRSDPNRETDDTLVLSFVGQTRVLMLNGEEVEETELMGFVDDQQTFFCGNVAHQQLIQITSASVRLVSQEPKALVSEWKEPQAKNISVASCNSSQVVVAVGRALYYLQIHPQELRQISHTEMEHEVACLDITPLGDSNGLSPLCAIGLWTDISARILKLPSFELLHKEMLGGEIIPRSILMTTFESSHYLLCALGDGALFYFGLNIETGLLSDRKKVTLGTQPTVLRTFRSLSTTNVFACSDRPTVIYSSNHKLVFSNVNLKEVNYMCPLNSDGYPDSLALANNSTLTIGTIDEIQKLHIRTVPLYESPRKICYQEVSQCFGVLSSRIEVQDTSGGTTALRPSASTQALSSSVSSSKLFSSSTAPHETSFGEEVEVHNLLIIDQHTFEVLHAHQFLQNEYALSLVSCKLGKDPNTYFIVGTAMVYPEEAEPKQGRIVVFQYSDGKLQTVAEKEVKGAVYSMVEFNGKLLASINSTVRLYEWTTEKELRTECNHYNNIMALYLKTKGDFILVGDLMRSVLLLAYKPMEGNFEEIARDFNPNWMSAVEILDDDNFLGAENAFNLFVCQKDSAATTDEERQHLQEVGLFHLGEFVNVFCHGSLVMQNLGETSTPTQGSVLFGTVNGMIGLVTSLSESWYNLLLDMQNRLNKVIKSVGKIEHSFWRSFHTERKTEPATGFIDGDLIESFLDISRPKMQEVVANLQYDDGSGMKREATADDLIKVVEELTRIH
T2 sequence (Q13422 whole entry): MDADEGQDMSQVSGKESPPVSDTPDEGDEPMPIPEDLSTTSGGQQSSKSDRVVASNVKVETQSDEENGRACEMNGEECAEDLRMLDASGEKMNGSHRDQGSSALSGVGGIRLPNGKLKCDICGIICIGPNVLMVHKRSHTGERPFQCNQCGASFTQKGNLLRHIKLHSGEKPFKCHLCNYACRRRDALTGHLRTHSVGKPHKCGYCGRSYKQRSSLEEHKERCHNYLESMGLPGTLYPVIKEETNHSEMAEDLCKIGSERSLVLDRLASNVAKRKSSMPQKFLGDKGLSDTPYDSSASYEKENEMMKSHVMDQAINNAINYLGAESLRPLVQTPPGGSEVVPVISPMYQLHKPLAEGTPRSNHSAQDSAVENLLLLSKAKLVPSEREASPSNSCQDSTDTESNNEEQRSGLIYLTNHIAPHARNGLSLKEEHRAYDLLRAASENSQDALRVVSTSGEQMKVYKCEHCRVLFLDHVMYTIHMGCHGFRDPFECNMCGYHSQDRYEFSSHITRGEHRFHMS
T2 sequence (Q96SW2 whole entry): as the sequence (Q96SW2 whole entry) above
T2 sequence (Q16531 whole entry partner): as the sequence (Q16531 whole entry partner) above
T1 sequence (P30291 whole entry): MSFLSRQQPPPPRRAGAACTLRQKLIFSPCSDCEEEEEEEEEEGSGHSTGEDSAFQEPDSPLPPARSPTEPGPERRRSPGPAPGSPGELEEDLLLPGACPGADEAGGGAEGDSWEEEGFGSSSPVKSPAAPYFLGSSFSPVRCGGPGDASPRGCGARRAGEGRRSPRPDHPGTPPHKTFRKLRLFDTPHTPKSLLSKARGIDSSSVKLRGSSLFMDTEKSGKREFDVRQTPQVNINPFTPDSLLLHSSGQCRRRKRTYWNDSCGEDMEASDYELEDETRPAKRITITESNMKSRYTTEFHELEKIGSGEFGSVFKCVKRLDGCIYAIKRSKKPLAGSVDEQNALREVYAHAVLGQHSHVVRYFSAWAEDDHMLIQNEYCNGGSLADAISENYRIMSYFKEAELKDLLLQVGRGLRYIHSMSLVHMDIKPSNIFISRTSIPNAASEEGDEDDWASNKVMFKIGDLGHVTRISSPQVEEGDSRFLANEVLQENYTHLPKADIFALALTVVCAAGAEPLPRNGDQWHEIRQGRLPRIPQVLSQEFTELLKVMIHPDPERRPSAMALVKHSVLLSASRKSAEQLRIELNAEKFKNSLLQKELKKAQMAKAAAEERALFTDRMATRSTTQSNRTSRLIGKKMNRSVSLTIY
T1 sequence (Q96SW2 whole entry): as the sequence (Q96SW2 whole entry) above
T1 sequence (Q16531 whole entry partner): as the sequence (Q16531 whole entry partner) above
T3 sequence (Q9UKS7 whole entry): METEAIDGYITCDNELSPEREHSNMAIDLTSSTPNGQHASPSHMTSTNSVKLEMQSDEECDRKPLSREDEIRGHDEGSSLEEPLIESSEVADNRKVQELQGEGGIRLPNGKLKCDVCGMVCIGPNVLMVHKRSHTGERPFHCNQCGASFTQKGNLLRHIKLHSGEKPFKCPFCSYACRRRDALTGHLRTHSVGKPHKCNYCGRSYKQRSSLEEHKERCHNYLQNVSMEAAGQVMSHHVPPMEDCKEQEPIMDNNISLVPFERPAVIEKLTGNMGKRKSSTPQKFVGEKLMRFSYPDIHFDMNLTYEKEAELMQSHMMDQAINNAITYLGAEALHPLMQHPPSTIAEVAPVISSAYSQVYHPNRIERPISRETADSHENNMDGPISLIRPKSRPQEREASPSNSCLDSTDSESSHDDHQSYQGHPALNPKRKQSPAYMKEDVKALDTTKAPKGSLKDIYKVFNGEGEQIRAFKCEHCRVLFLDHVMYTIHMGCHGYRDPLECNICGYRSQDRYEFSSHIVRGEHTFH
T3 sequence (Q96SW2 whole entry): as the sequence (Q96SW2 whole entry) above
T3 sequence (Q16531 whole entry partner): as the sequence (Q16531 whole entry partner) above
T6 sequence (P15170 whole entry): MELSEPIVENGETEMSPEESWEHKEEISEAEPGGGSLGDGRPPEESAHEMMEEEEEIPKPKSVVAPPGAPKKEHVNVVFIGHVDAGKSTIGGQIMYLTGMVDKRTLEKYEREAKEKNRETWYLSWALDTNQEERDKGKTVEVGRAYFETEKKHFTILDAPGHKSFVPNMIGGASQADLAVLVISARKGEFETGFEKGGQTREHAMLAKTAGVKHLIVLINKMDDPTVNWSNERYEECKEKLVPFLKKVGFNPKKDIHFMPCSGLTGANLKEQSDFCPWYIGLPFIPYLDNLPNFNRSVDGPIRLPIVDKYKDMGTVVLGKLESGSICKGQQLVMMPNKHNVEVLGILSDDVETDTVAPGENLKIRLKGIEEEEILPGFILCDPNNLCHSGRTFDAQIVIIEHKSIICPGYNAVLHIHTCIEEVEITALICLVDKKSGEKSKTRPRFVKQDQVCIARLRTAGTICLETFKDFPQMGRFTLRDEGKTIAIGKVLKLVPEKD
T6 sequence (Q96SW2 whole entry): as the sequence (Q96SW2 whole entry) above
T6 sequence (Q16531 whole entry partner): as the sequence (Q16531 whole entry partner) above

## O=C1CCN(N2C(=O)c3ccc(CN4CCC(c5ncnc6sc7c(c56)CCCC7)CC4)cc3C2=O)C(=O)N1 [GT-08424, 2-(2,4-dioxotetrahydropyrimidin-1(2H)-yl)-5-((4-(5,6,7,8-tetrahydrobenzo[4,5]thieno[2,3-d]pyrimidin-4-yl)piperidin-1-yl)methyl)isoindoline-1,3-dione]
WEE1
  substrate protein remaining % WEE1: B (80%< substrate protein remaining %≤ 100%)
IKZF1
  substrate protein remaining % IKZF1: B (80%< substrate protein remaining %≤ 100%)
IKZF2
  substrate protein remaining % IKZF2: B (80%< substrate protein remaining %≤ 100%)
IKZF3
  substrate protein remaining % IKZF3: B (80%< substrate protein remaining %≤ 100%)
CK1α
  substrate protein remaining % CK1α: A (0% ≤ substrate protein remaining % ≤ 80%)
GSPT1
  substrate protein remaining % GSPT1: A (0% ≤ substrate protein remaining % ≤ 80%)
H292
  inhibition at 0.01 µM: 20 to 40%
  inhibition at 0.5 µM: 10 to 15%

## Cc1nc(C2=CCN(Cc3ccc4c(c3)C(=O)N(N3CCC(=O)NC3=O)C4=O)CC2)c2c3c(sc2n1)CCCC3 [GT-08432, 2-(2,4-dioxotetrahydropyrimidin-1(2H)-yl)-5-((4-(2-methyl-5,6,7,8-tetrahydrobenzo[4,5]thieno[2,3-d]pyrimidin-4-yl)-3,6-dihydropyridin-1(2H)-yl)methyl)isoindoline-1,3-dione]
WEE1
  substrate protein remaining % WEE1: B (80%< substrate protein remaining %≤ 100%)
IKZF1
  substrate protein remaining % IKZF1: B (80%< substrate protein remaining %≤ 100%)
IKZF2
  substrate protein remaining % IKZF2: B (80%< substrate protein remaining %≤ 100%)
IKZF3
  substrate protein remaining % IKZF3: A (0% ≤ substrate protein remaining % ≤ 80%)
CK1α
  substrate protein remaining % CK1α: A (0% ≤ substrate protein remaining % ≤ 80%)
GSPT1
  substrate protein remaining % GSPT1: A (0% ≤ substrate protein remaining % ≤ 80%)
H292
  inhibition at 0.01 µM: 20 to 40%
  inhibition at 0.5 µM: 20 to 40%

## O=C1CCN(N2C(=O)c3ccc(CN4CCN(c5nc(Cl)nc6c5SCC6)CC4)cc3C2=O)C(=O)N1 [GT-08448, 5-((4-(2-chloro-6,7-dihydrothieno[3,2-d]pyrimidin-4-yl)piperazin-1-yl)methyl)-2-(2,4-dioxotetrahydropyrimidin-1(2H)-yl)isoindoline-1,3-dione]
WEE1
  substrate protein remaining % WEE1: B (80%< substrate protein remaining %≤ 100%)
IKZF1
  substrate protein remaining % IKZF1: B (80%< substrate protein remaining %≤ 100%)
IKZF2
  substrate protein remaining % IKZF2: B (80%< substrate protein remaining %≤ 100%)
IKZF3
  substrate protein remaining % IKZF3: B (80%< substrate protein remaining %≤ 100%)
CK1α
  substrate protein remaining % CK1α: B (80%< substrate protein remaining %≤ 100%)
GSPT1
  substrate protein remaining % GSPT1: A (0% ≤ substrate protein remaining % ≤ 80%)
H292
  inhibition at 0.01 µM: 20 to 40%
  inhibition at 0.5 µM: 20 to 40%

## O=C1CCN(N2C(=O)c3ccc(CN4CCC(c5ncc6ccsc6n5)CC4)cc3C2=O)C(=O)N1 [GT-08427, 2-(2,4-dioxotetrahydropyrimidin-1(2H)-yl)-5-((4-(thieno[2,3-d]pyrimidin-2-yl)piperidin-1-yl)methyl)isoindoline-1,3-dione]
WEE1
  substrate protein remaining % WEE1: A (0% ≤ substrate protein remaining % ≤ 80%)
IKZF1
  substrate protein remaining % IKZF1: B (80%< substrate protein remaining %≤ 100%)
IKZF2
  substrate protein remaining % IKZF2: A (0% ≤ substrate protein remaining % ≤ 80%)
IKZF3
  substrate protein remaining % IKZF3: B (80%< substrate protein remaining %≤ 100%)
CK1α
  substrate protein remaining % CK1α: B (80%< substrate protein remaining %≤ 100%)
GSPT1
  substrate protein remaining % GSPT1: B (80%< substrate protein remaining %≤ 100%)
H292
  inhibition at 0.01 µM: 15 to 20%
  inhibition at 0.5 µM: 20 to 40%

## O=C1CCN(N2C(=O)c3ccc(CN4CCN(c5ncnc6ccsc56)CC4)cc3C2=O)C(=O)N1 [GT-08452, 2-(2,4-dioxotetrahydropyrimidin-1(2H)-yl)-5-((4-(thieno[3,2-d]pyrimidin-4-yl)piperazin-1-yl)methyl)isoindoline-1,3-dione]
WEE1
  substrate protein remaining % WEE1: A (0% ≤ substrate protein remaining % ≤ 80%)
IKZF1
  substrate protein remaining % IKZF1: A (0% ≤ substrate protein remaining % ≤ 80%)
IKZF2
  substrate protein remaining % IKZF2: B (80%< substrate protein remaining %≤ 100%)
IKZF3
  substrate protein remaining % IKZF3: A (0% ≤ substrate protein remaining % ≤ 80%)
CK1α
  substrate protein remaining % CK1α: A (0% ≤ substrate protein remaining % ≤ 80%)
GSPT1
  substrate protein remaining % GSPT1: B (80%< substrate protein remaining %≤ 100%)
H292
  inhibition at 0.01 µM: 20 to 40%
  inhibition at 0.5 µM: 5 to 10%

## O=C1CCN(N2C(=O)c3ccc(CN4CCN(c5nc(N6CCOCC6)nc6ccsc56)CC4)cc3C2=O)C(=O)N1 [GT-08455, 2-(2,4-dioxotetrahydropyrimidin-1(2H)-yl)-5-((4-(2-morpholinothieno[3,2-d]pyrimidin-4-yl)piperazin-1-yl)methyl)isoindoline-1,3-dione]
WEE1
  substrate protein remaining % WEE1: B (80%< substrate protein remaining %≤ 100%)
IKZF1
  substrate protein remaining % IKZF1: B (80%< substrate protein remaining %≤ 100%)
IKZF2
  substrate protein remaining % IKZF2: B (80%< substrate protein remaining %≤ 100%)
IKZF3
  substrate protein remaining % IKZF3: A (0% ≤ substrate protein remaining % ≤ 80%)
CK1α
  substrate protein remaining % CK1α: A (0% ≤ substrate protein remaining % ≤ 80%)
GSPT1
  substrate protein remaining % GSPT1: A (0% ≤ substrate protein remaining % ≤ 80%)
H292
  inhibition at 0.01 µM: 5 to 10%
  inhibition at 0.5 µM: 15 to 20%

## Cc1csc2ncnc(C3=CCN(Cc4ccc5c(c4)C(=O)N(N4CCC(=O)NC4=O)C5=O)CC3)c12 [GT-08428, 2-(2,4-dioxotetrahydropyrimidin-1(2H)-yl)-5-((4-(5-methylthieno[2,3-d]pyrimidin-4-yl)-3,6-dihydropyridin-1(2H)-yl)methyl)isoindoline-1,3-dione]
WEE1
  substrate protein remaining % WEE1: A (0% ≤ substrate protein remaining % ≤ 80%)
IKZF1
  substrate protein remaining % IKZF1: B (80%< substrate protein remaining %≤ 100%)
IKZF2
  substrate protein remaining % IKZF2: A (0% ≤ substrate protein remaining % ≤ 80%)
IKZF3
  substrate protein remaining % IKZF3: A (0% ≤ substrate protein remaining % ≤ 80%)
CK1α
  substrate protein remaining % CK1α: B (80%< substrate protein remaining %≤ 100%)
GSPT1
  substrate protein remaining % GSPT1: B (80%< substrate protein remaining %≤ 100%)
H292
  inhibition at 0.01 µM: 5 to 10%
  inhibition at 0.5 µM: 20 to 40%

## O=C1CCN(N2Cc3cc(CN4CCN(c5ncnc6ccsc56)CC4)ccc3C2=O)C(=O)N1 [GT-08443, 1-(1-oxo-5-((4-(thieno[3,2-d]pyrimidin-4-yl)piperazin-1-yl)methyl)isoindolin-2-yl)dihydropyrimidine-2,4(1H,3H)-dione]
WEE1
  substrate protein remaining % WEE1: A (0% ≤ substrate protein remaining % ≤ 80%)
IKZF1
  substrate protein remaining % IKZF1: B (80%< substrate protein remaining %≤ 100%)
IKZF2
  substrate protein remaining % IKZF2: B (80%< substrate protein remaining %≤ 100%)
IKZF3
  substrate protein remaining % IKZF3: B (80%< substrate protein remaining %≤ 100%)
CK1α
  substrate protein remaining % CK1α: B (80%< substrate protein remaining %≤ 100%)
GSPT1
  substrate protein remaining % GSPT1: B (80%< substrate protein remaining %≤ 100%)
H292
  inhibition at 0.01 µM: 20 to 40%
  inhibition at 0.5 µM: 40 to 60%

## O=C1CCN(N2C(=O)c3ccc(CN4CCN(c5ncnc6sc7c(c56)CCC7)CC4)cc3C2=O)C(=O)N1 [GT-08103, 5-((4-(6,7-dihydro-5H-cyclopenta[4,5]thieno[2,3-d]pyrimidin-4-yl)piperazin-1-yl)methyl)-2-(2,4-dioxotetrahydropyrimidin-1(2H)-yl)isoindoline-1,3-dione]
WEE1
  substrate protein remaining % WEE1: B (80%< substrate protein remaining %≤ 100%)
IKZF1
  substrate protein remaining % IKZF1: B (80%< substrate protein remaining %≤ 100%)
IKZF2
  substrate protein remaining % IKZF2: A (0% ≤ substrate protein remaining % ≤ 80%)
IKZF3
  substrate protein remaining % IKZF3: A (0% ≤ substrate protein remaining % ≤ 80%)
CK1α
  substrate protein remaining % CK1α: B (80%< substrate protein remaining %≤ 100%)
GSPT1
  substrate protein remaining % GSPT1: B (80%< substrate protein remaining %≤ 100%)
H292
  inhibition at 0.01 µM: 15 to 20%
  inhibition at 0.5 µM: 15 to 20%

## Cc1nc(C2=CCN(Cc3ccc4c(c3)CN(N3CCC(=O)NC3=O)C4=O)CC2)c2c3c(sc2n1)CCC3 [GT-08437, 1-(5-((4-(2-methyl-6,7-dihydro-5H-cyclopenta[4,5]thieno[2,3-d]pyrimidin-4-yl)-3,6-dihydropyridin-1(2H)-yl)methyl)-1-oxoisoindolin-2-yl)dihydropyrimidine-2,4(1H,3H)-dione]
WEE1
  substrate protein remaining % WEE1: A (0% ≤ substrate protein remaining % ≤ 80%)
IKZF1
  substrate protein remaining % IKZF1: A (0% ≤ substrate protein remaining % ≤ 80%)
IKZF2
  substrate protein remaining % IKZF2: B (80%< substrate protein remaining %≤ 100%)
IKZF3
  substrate protein remaining % IKZF3: A (0% ≤ substrate protein remaining % ≤ 80%)
CK1α
  substrate protein remaining % CK1α: B (80%< substrate protein remaining %≤ 100%)
GSPT1
  substrate protein remaining % GSPT1: A (0% ≤ substrate protein remaining % ≤ 80%)
H292
  inhibition at 0.01 µM: 20 to 40%
  inhibition at 0.5 µM: 15 to 20%

## O=C1CCN(N2C(=O)c3ccc(CN4CCN(c5ncc6ccsc6n5)CC4)cc3C2=O)C(=O)N1 [GT-08105, 2-(2,4-dioxotetrahydropyrimidin-1(2H)-yl)-5-((4-(thieno[2,3-d]pyrimidin-2-yl)piperazin-1-yl)methyl)isoindoline-1,3-dione]
WEE1
  substrate protein remaining % WEE1: B (80%< substrate protein remaining %≤ 100%)
IKZF1
  substrate protein remaining % IKZF1: B (80%< substrate protein remaining %≤ 100%)
IKZF2
  substrate protein remaining % IKZF2: A (0% ≤ substrate protein remaining % ≤ 80%)
IKZF3
  substrate protein remaining % IKZF3: A (0% ≤ substrate protein remaining % ≤ 80%)
CK1α
  substrate protein remaining % CK1α: B (80%< substrate protein remaining %≤ 100%)
GSPT1
  substrate protein remaining % GSPT1: A (0% ≤ substrate protein remaining % ≤ 80%)
H292
  inhibition at 0.01 µM: 10 to 15%
  inhibition at 0.5 µM: 10 to 15%
